Test results as given in ChEMBL document CHEMBL1131912, “Synthesis of potent and selective inhibitors of human plasma kallikrein” (Bioorg Med Chem Lett, 1999).

Key:
Plasma kallikrein = Plasma kallikrein (Homo sapiens, UniProt P03952); test: Inhibitory activity of compound against human plasma Kallikrein (PK); assay type: cell-free
Kallikrein-1 = Kallikrein-1 (Homo sapiens, UniProt P06870); test: Inhibitory activity of compound against Tissue Kallikrein (TK)
Chain of Kallikrein-1 (P06870 whole entry): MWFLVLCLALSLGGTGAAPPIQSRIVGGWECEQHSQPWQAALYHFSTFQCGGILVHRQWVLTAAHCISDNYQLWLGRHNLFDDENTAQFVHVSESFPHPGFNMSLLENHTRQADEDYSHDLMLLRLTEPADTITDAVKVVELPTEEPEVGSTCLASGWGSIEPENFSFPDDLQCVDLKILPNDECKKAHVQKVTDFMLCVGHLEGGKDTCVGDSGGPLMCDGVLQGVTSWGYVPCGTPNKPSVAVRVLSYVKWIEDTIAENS

Chain of Plasma kallikrein (P03952 20-390 limits assumed): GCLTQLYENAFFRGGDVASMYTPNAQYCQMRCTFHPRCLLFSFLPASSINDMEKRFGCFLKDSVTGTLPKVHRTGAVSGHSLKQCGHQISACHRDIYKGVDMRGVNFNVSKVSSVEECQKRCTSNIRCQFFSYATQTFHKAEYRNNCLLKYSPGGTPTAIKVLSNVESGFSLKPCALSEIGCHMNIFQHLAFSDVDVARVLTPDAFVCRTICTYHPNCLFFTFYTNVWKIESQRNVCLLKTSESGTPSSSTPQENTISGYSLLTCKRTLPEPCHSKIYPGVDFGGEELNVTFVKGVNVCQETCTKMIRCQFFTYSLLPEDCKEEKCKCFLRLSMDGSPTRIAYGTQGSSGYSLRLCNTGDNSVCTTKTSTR
Chain of Plasma kallikrein (P03952 391-638 limits assumed): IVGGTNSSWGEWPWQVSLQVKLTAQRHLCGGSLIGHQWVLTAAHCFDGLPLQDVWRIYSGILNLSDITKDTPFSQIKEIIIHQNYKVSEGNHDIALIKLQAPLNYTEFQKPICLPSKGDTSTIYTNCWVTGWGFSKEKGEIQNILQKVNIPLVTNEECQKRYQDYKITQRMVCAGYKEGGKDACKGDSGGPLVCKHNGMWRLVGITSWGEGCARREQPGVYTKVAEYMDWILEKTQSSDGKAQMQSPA

Question: Which results are given for `CC(C)(C)[C@@H](NC(=O)N1CCOCC1)C(=O)NCC(=O)NC(Cc1ccc(NC(=N)N)cc1)C(=O)C(F)(F)F` (some centres undefined)?
Answer: Ki (Plasma kallikrein): 15.5 µM; Ki (Kallikrein-1): > 150 µM

Question: Which Ki (Plasma kallikrein) does the source give for `CC(C)[C@@H](NC(=O)OC12CC3CC(CC(C3)C1)C2)C(=O)N[C@@H](Cc1ccccc1)C(=O)NC(Cc1ccc(NC(=N)N)cc1)C(=O)C(F)(F)F` (some centres undefined) here?
Answer: 0.005 µM

Question: What about the Ki (Kallikrein-1) of the same compound?
Answer: 191 µM

Question: Which Ki (Plasma kallikrein) does the source give for `CC(C)(C)[C@@H](NC(=O)OC12CC3CC(CC(C3)C1)C2)C(=O)N[C@@H](Cc1ccccc1)C(=O)NC(Cc1ccc(NC(=N)N)cc1)C(=O)C(F)(F)F` (some centres undefined) here?
Answer: 0.002 µM

Question: What about the Ki (Kallikrein-1) of the same compound?
Answer: 47.3 µM

Question: With `CC(C)(C)[C@@H](NC(=O)N1CCOCC1)C(=O)N[C@@H](Cc1ccccc1)C(=O)NC(Cc1ccc(NC(=N)N)cc1)C(=O)C(F)(F)F` (some centres undefined) as the compound, how does the Ki (Plasma kallikrein) read?
Answer: 0.028 µM

Question: What about the Ki (Kallikrein-1) of the same compound?
Answer: > 2500 µM

Question: With `CC(C)(C)[C@@H](NC(=O)OC12CC3CC(CC(C3)C1)C2)C(=O)N[C@H](C(=O)NC(Cc1ccc(NC(=N)N)cc1)C(=O)C(F)(F)F)c1ccc2ccccc2c1` (some centres undefined) as the compound, how does the Ki (Plasma kallikrein) read?
Answer: 0.5 µM

Question: What about the Ki (Kallikrein-1) of the same compound?
Answer: > 50 µM

Question: With `N=C(N)Nc1ccc(CC(NC(=O)[C@H](Cc2ccccc2)NC(=O)[C@@H](CCc2ccccc2)NC(=O)OC23CC4CC(CC(C4)C2)C3)C(=O)C(F)(F)F)cc1` (some centres undefined) as the compound, how does the Ki (Plasma kallikrein) read?
Answer: 0.004 µM

Question: And the Ki (Kallikrein-1)?
Answer: 7 µM

Question: With `CC(C)(C)OC(=O)N[C@H](Cc1ccccc1)C(=O)N[C@H](C(=O)NC(Cc1ccc(NC(=N)N)cc1)C(=O)C(F)(F)F)c1ccc2ccccc2c1` (some centres undefined) as the compound, how does the Ki (Plasma kallikrein) read?
Answer: 0.089 µM

Question: What about the Ki (Kallikrein-1) of the same compound?
Answer: 223 µM
